Source: patent US20100311694A1, “Set of Geldanamycin Derivatives and Their Preparation Methods” (Institute of Medicinal Biotechnology, Chinese Academy of …, priority 2008, published 2010)

Experiments:
HIV-1 = assay: Anti HIV-1 activity (HIV-1 P24 antigen in cell cultures); assay type: cell-based; conditions: 4 days after addition of the reagents
Description: Test Procedure of Anti HIV-1 Activity
8 reagent solutions of different diluted concentrations and positive control solutions are added into cell cultures in 96 well plate respectively. The sample of each diluted solutions is made duplicately and a control cell sample is also is set up. 100 μl of cell sample at a concentration of 2×10^5cells/ml is inoculated into the wells containing reagent in the plate. The cells samples are cultured in a saturated humidity culture chamber (at a 5% CO2 atmosphere) at 37° C. The pathological changes of cells are observed daily.

HBV = assay: Anti-HBV activity (HBV DNA in cell lysate, spot hybridization); assay type: cell-based; conditions: HBV DNA content of the cells, reagent solution changed every 4 days
Description: Test Procedure for Anti-HBV Activity
Using cell culture method, the preparation of the cells to be tested (100,000 cell's/mL) is inoculated into cell culture plate in 100 μl each well and the cells are cultured 24 h at 37° C. in 5% CO2. Tests are carried out when the cells grow into a monolayer. The target compounds as well as the controls are prepared into a series of solutions of appropriate concentrations using the culture medium and are added into 96 well culture plate respectively in 4 wells per one concentration. Then the reagent solution in each well is changed into the fresh reagent solution with the same concentration every 4 days. A cell control without reagent treatment is simultaneously is set up. The observation index is based upon the pathological changes of the cells by observing the degrees of the pathological changes of the cells under microscope every 8 days. […] Cell control without drug treatment is simultaneously is set up. The reagent solution or control medium in each well is changed into the fresh reagent solution or fresh medium respectively every 4 days. After cytolysis of the cells, HBV DNA is extracted from the cell lysis solution according to the molecular cloning technical procedure. The spots of different samples are hybridized and the A values of different hybridized spots are measured using autoradiograghic technique. The HBV DNA contents in the cell control as well as in the drug treated samples are calculated using the regression equations obtained from the standard curves to obtain half effective concentration values, the results are shown in Table 1.

Row | SMILES | Activity of HIV inhibition IC50 (HIV-1) | Activity of HBV inhibition IC50 (HBV)
1 | COC1C=CC=C(C)C(=O)NC2=CC(=O)C(NCc3ccccn3)=C(CC(C)CC(OC)C(O)C(C)C=C(C)C1OC(N)=O)C2=O (stereo not drawn) [GM-W19] | 28.90 µg/mL | 3.4 µg/mL
2 | COC1C=CC=C(C)C(=O)NC2=CC(=O)C(NCc3cccnc3)=C(CC(C)CC(OC)C(O)C(C)C=C(C)C1OC(N)=O)C2=O (stereo not drawn) [GM-W20] | 26.42 µg/mL | 6.89 µg/mL
3 | COC1C=CC=C(C)C(=O)NC2=CC(=O)C(NC3CCc4ccccc43)=C(CC(C)CC(OC)C(O)C(C)C=C(C)C1OC(N)=O)C2=O (stereo not drawn) [GM-W21] | 58.97 µg/mL | 10.4 µg/mL
4 | COC1C=CC=C(C)C(=O)NC2=CC(=O)C(NCC3CCCCN3)=C(CC(C)CC(OC)C(O)C(C)C=C(C)C1OC(N)=O)C2=O (stereo not drawn) [GM-W22] | 1.37 µg/mL | 3.2 µg/mL
5 | COC1C=CC=C(C)C(=O)NC2=CC(=O)C(NCC3CCCNC3)=C(CC(C)CC(OC)C(O)C(C)C=C(C)C1OC(N)=O)C2=O (stereo not drawn) [GM-W23] | 0.46 µg/mL | 0.32 µg/mL
6 | COC1C=CC=C(C)C(=O)NC2=CC(=O)C(NCC(=N)N)=C(CC(C)CC(OC)C(O)C(C)C=C(C)C1OC(N)=O)C2=O (stereo not drawn) [GM-W24] | 0.11 µg/mL | 0.01 µg/mL
7 | COC1C=CC=C(C)C(=O)NC2=CC(=O)C(NCCOCCO)=C(CC(C)CC(OC)C(O)C(C)C=C(C)C1OC(N)=O)C2=O (stereo not drawn) [GM-W25] | 0.43 µg/mL | 0.32 µg/mL
8 | COC1C=CC=C(C)C(=O)NC2=CC(=O)C(NCCNCCO)=C(CC(C)CC(OC)C(O)C(C)C=C(C)C1OC(N)=O)C2=O (stereo not drawn) [GM-W26] | 0.21 µg/mL | 0.64 µg/mL
9 | COC1C=CC=C(C)C(=O)NC2=CC(=O)C(NCCC3CCN(Cc4ccccc4)CC3)=C(CC(C)CC(OC)C(O)C(C)C=C(C)C1OC(N)=O)C2=O (stereo not drawn) [GM-W27] | 13.81 µg/mL | 3.9 µg/mL
10 | COC1C=CC=C(C)C(=O)NC2=CC(=O)C(NCCC3OCCO3)=C(CC(C)CC(OC)C(O)C(C)C=C(C)C1OC(N)=O)C2=O (stereo not drawn) [GM-W28] | 0.21 µg/mL | 0.10 µg/mL
11 | COC1C=CC=C(C)C(=O)NC2=CC(=O)C(NCC3OCCO3)=C(CC(C)CC(OC)C(O)C(C)C=C(C)C1OC(N)=O)C2=O (stereo not drawn) [GM-W29] | 0.67 µg/mL | 6.4 µg/mL
12 | CCN(CCNC1=C2CC(C)CC(OC)C(O)C(C)C=C(C)C(OC(N)=O)C(OC)C=CC=C(C)C(=O)NC(=CC1=O)C2=O)c1cccc(C)c1 (stereo not drawn) [GM-W30] | 10.89 µg/mL | 5.6 µg/mL
13 | COC1C=CC=C(C)C(=O)NC2=CC(=O)C(NCCOC(C)C)=C(CC(C)CC(OC)C(O)C(C)C=C(C)C1OC(N)=O)C2=O (stereo not drawn) [GM-W31] | 0.32 µg/mL | 0.32 µg/mL
14 | COC1C=CC=C(C)C(=O)NC2=CC(=O)C(NCCc3cccnc3)=C(CC(C)CC(OC)C(O)C(C)C=C(C)C1OC(N)=O)C2=O (stereo not drawn) [GM-W32] | 0.48 µg/mL | 6.4 µg/mL
15 | COC1C=CC=C(C)C(=O)NC2=CC(=O)C(NN3CCN(C)CC3)=C(CC(C)CC(OC)C(O)C(C)C=C(C)C1OC(N)=O)C2=O (stereo not drawn) [GM-W35] | 3.48 µg/mL | 4.36 µg/mL
16 | COC1C=CC=C(C)C(=O)NC2=CC(=O)C(NCC(O)c3ccccc3)=C(CC(C)CC(OC)C(O)C(C)C=C(C)C1OC(N)=O)C2=O (stereo not drawn) [GM-W36] | 0.29 µg/mL | 0.02 µg/mL
17 | COC1C=CC=C(C)C(=O)NC2=CC(=O)C(NC3CCNCC3)=C(CC(C)CC(OC)C(O)C(C)C=C(C)C1OC(N)=O)C2=O (stereo not drawn) [GM-W37] | 1.43 µg/mL | 1.32 µg/mL
18 | COC1C=CC=C(C)C(=O)NC2=CC(=O)C(NC3CCN(c4ccncc4)CC3)=C(CC(C)CC(OC)C(O)C(C)C=C(C)C1OC(N)=O)C2=O (stereo not drawn) [GM-W38] | 1.59 µg/mL | 0.64 µg/mL
